Assays:
[1] = molecular target: NIM1 (Homo sapiens, UniProt Q8IY84); assay: KINOMEscan; settings: read-out: Percent Control
Method: (§1) The kinase engagement assay (KINOMEscan®) was performed by DiscoverX assessing binding abilities toward a set of kinases.

[2] = molecular target: HIPK4 (Homo sapiens, UniProt Q8NE63); assay: KINOMEscan; settings: read-out: Percent Control
Method: as §1

[3] = molecular target: EPHB6 (Homo sapiens, UniProt O15197); assay: KINOMEscan; settings: read-out: Percent Control
Method: as §1

[4] = molecular target: BLK (Homo sapiens, UniProt P51451); assay: KINOMEscan; settings: read-out: Percent Control
Method: as §1

[5] = molecular target: AKT3 (Homo sapiens, UniProt Q9Y243); assay: KINOMEscan; settings: read-out: Percent Control
Chain of AKT3 (Q9Y243 whole entry): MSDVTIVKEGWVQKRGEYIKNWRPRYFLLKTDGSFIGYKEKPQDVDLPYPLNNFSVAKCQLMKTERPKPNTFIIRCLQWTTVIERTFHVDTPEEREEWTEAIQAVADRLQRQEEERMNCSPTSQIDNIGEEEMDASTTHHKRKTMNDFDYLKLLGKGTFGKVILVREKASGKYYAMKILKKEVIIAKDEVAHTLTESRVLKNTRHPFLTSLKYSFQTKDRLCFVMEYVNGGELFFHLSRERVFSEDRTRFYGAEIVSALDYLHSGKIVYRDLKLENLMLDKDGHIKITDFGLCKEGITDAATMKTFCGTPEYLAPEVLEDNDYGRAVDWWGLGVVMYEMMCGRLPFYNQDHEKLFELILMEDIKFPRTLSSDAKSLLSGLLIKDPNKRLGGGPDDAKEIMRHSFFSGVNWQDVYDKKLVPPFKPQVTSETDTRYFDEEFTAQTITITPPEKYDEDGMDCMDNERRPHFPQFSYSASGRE
Method: as §1

[6] = molecular target: WNK4 (Homo sapiens, UniProt Q96J92); assay: KINOMEscan; settings: read-out: Percent Control
Method: as §1

[7] = molecular target: PIK3CA(H1047L) (Homo sapiens, UniProt P42336, H1047L); assay: KINOMEscan; settings: read-out: Percent Control
Method: as §1

[8] = molecular target: NEK3 (Homo sapiens, UniProt P51956); assay: KINOMEscan; settings: read-out: Percent Control
Method: as §1

[9] = molecular target: FLT3(R834Q) (Homo sapiens, UniProt P36888, R834Q); assay: KINOMEscan; settings: read-out: Percent Control
Method: as §1

[10] = molecular target: PAK2 (Homo sapiens, UniProt Q13177); assay: Z'-LYTE FRET kinase inhibition assay; format: biochemical; parameters: PAK2 (full length); purchased Invitrogen PV4565
Chain of PAK2 (Q13177 whole entry, the tested form may be a part): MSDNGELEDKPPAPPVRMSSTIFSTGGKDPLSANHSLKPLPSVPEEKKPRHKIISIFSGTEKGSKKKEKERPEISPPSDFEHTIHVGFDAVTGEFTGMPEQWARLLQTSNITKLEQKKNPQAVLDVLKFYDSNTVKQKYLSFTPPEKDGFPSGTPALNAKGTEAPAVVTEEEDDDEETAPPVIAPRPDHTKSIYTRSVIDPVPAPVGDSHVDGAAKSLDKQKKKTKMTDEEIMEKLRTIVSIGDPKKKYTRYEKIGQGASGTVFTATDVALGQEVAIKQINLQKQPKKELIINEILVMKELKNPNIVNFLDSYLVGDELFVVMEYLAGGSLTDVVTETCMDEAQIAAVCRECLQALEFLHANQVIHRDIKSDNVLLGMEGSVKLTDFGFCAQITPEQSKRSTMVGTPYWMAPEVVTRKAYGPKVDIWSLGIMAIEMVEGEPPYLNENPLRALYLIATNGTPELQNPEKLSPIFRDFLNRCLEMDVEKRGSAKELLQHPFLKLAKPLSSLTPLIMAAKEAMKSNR
Method: The activity/inhibition of human recombinant PAK1 (kinase domain) or PAK2 (full length) was determined by measuring the phosphorylation of a FRET peptide substrate (Ser/Thr19) labeled with Coumarin and Fluorescein using Z′-LYTE™ assay (Invitrogen). The 10 μL assay mixtures contained 50 mM HEPES (pH 7.5), 0.01% Brij-35, 10 mM MgCl2, 1 mM EGTA, 2 μM FRET peptide substrate, and PAK enzyme (20 pM PAK1; 50 pM PAK2). Incubations were carried out at 22° C. in black polypropylene 384-well plates (Corning Costar). Prior to the assay, enzyme, FRET peptide substrate and serially diluted test compounds were preincubated together in assay buffer (7.5 μL) for 10 minutes, and the assay was initiated by the addition of 2.5 μL assay buffer containing 4×ATP (160 μM PAK1; 480 μM PAK2). Following the 60-minute incubation, the assay mixtures were quenched by the addition of 5 μL of Z′-LYTE™ development reagent, and 1 hour later the emissions of Coumarin (445 nm) and Fluorescein (520 nm) were determined after excitation at 400 nm using an Envision plate reader (Perkin Elmer). […].

[11] = molecular target: EGFR(S752-1759del) (Homo sapiens, UniProt P00533, DEL752-759); assay: KINOMEscan; settings: read-out: Percent Control
Chain of EGFR(S752-1759del) (P00533 with tags, fused parts or gaps DEL752-759 limits assumed): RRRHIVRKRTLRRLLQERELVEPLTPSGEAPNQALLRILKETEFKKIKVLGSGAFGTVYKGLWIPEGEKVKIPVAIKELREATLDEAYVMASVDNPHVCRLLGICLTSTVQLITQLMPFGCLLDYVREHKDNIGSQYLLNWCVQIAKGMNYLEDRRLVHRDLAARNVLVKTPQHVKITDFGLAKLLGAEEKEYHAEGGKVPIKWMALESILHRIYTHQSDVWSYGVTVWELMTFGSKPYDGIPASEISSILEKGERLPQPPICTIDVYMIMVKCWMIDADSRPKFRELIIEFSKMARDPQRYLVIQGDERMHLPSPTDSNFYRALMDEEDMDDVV
Method: as §1

[12] = molecular target: PRKCE (Homo sapiens, UniProt Q02156); assay: KINOMEscan; settings: read-out: Percent Control
Chain of PRKCE (Q02156 whole entry): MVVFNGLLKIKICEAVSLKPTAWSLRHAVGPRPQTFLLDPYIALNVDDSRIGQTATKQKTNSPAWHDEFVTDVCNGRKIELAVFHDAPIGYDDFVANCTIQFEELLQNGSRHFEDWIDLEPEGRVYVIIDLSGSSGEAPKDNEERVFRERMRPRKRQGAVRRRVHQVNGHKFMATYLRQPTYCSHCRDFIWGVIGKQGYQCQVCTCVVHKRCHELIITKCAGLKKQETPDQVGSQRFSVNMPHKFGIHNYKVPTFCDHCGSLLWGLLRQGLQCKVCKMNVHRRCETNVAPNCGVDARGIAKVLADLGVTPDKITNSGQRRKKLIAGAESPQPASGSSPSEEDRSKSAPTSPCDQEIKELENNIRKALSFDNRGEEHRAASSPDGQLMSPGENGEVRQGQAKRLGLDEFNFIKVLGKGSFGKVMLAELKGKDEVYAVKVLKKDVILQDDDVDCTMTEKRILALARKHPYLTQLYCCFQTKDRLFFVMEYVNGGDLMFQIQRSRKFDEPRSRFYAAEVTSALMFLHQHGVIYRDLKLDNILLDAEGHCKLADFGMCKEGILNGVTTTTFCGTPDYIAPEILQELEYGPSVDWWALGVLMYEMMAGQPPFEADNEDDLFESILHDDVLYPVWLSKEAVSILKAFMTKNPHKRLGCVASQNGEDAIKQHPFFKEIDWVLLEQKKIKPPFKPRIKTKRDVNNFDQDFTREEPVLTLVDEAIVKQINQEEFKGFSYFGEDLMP
Method: as §1

[13] = molecular target: CSF1R (Homo sapiens, UniProt P07333); assay: KINOMEscan; settings: read-out: Percent Control
Chain of CSF1R (P07333 20-972): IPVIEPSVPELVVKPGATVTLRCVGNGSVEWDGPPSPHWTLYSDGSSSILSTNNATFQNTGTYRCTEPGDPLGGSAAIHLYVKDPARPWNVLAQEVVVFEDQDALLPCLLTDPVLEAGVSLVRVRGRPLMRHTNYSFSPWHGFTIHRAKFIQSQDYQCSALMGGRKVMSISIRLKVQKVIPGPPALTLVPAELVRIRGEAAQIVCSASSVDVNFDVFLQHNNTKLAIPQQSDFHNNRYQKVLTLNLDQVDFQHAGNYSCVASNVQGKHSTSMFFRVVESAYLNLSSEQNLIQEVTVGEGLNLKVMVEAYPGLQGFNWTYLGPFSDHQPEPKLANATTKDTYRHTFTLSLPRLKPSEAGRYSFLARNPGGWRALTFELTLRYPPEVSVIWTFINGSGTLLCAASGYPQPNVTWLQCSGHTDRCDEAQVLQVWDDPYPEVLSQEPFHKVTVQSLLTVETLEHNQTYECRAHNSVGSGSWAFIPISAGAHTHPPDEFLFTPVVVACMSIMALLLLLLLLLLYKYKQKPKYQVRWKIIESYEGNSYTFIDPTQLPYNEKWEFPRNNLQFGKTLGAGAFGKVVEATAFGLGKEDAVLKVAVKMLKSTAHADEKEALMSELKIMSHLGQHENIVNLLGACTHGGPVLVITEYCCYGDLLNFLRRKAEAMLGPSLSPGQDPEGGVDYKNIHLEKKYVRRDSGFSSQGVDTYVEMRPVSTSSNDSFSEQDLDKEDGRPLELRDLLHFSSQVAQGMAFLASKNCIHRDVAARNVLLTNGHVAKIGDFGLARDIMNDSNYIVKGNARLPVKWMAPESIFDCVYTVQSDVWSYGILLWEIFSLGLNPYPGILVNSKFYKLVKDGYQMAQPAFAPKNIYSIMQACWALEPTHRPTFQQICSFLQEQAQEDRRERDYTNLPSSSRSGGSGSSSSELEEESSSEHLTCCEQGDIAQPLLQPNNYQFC
Method: as §1

[14] = molecular target: NEK9 (Homo sapiens, UniProt Q8TD19); assay: KINOMEscan; settings: read-out: Percent Control
Method: as §1

[15] = molecular target: FGFR3 (Homo sapiens, UniProt P22607); assay: KINOMEscan; settings: read-out: Percent Control
Method: as §1

[16] = molecular target: p38-gamma (Homo sapiens, UniProt P53778); assay: KINOMEscan; settings: read-out: Percent Control
Method: as §1

[17] = molecular target: CHEK2 (Homo sapiens, UniProt O96017); assay: KINOMEscan; settings: read-out: Percent Control
Method: as §1

[18] = molecular target: ABL1(F317L)-phosphorylated (Homo sapiens, UniProt P00519, F317L); assay: KINOMEscan; settings: read-out: Percent Control
Method: as §1

[19] = molecular target: LIMK2 (Homo sapiens, UniProt P53671); assay: KINOMEscan; settings: read-out: Percent Control
Method: as §1

[20] = molecular target: KIT(D816H) (Homo sapiens, UniProt P10721, D816H); assay: KINOMEscan; settings: read-out: Percent Control
Method: as §1

[21] = molecular target: MEK1 (Homo sapiens, UniProt Q02750); assay: KINOMEscan; settings: read-out: Percent Control
Method: as §1

[22] = molecular target: GSK3B (Homo sapiens, UniProt P49841); assay: KINOMEscan; settings: read-out: Percent Control
Method: as §1

[23] = molecular target: YES (Homo sapiens, UniProt P07947); assay: KINOMEscan; settings: read-out: Percent Control
Chain of YES (P07947 whole entry): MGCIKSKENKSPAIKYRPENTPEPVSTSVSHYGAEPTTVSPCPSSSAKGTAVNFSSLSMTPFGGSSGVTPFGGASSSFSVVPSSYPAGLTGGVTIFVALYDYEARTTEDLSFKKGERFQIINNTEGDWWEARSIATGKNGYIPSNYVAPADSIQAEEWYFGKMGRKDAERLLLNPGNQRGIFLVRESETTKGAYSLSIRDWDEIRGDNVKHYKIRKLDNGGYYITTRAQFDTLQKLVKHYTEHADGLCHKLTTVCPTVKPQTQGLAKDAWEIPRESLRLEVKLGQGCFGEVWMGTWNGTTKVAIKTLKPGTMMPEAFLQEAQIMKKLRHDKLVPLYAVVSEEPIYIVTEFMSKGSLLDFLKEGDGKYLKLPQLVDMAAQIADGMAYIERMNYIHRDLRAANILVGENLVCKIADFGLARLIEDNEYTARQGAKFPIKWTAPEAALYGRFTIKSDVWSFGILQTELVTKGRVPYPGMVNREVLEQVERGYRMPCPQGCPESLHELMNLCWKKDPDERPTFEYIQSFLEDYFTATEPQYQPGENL
Method: as §1

[24] = molecular target: KIT(V559D, V654A) (Homo sapiens, UniProt P10721, V559D/V654A); assay: KINOMEscan; settings: read-out: Percent Control
Chain of KIT(V559D, V654A) (P10721 26-976 V559D/V654A): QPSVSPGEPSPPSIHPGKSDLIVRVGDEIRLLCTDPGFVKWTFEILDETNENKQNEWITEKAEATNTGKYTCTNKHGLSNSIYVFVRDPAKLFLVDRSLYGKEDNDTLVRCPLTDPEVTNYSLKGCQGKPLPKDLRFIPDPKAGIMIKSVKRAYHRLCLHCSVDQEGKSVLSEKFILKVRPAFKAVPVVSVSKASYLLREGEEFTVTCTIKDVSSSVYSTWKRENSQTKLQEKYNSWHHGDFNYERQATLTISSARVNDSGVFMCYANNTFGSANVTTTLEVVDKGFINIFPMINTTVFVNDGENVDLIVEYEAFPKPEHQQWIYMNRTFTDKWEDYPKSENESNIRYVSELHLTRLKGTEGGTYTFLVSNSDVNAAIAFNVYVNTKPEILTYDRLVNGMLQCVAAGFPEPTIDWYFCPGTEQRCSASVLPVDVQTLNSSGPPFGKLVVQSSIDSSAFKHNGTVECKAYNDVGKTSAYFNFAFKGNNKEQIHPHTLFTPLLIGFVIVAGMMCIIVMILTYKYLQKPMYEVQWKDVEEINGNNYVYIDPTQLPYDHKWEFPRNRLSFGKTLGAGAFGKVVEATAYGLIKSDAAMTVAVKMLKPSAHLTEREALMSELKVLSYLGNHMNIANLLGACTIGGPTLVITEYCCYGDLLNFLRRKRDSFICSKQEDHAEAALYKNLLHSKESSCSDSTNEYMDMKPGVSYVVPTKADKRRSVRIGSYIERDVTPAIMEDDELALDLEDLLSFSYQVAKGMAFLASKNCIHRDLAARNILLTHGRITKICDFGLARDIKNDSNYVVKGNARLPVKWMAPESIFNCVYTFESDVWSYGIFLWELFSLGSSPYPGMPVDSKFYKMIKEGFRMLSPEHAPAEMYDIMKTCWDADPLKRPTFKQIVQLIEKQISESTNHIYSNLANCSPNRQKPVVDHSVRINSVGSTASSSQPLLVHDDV
Method: as §1

[25] = molecular target: CLK3 (Homo sapiens, UniProt P49761); assay: KINOMEscan; settings: read-out: Percent Control
Method: as §1

[26] = molecular target: GRK7 (Homo sapiens, UniProt Q8WTQ7); assay: KINOMEscan; settings: read-out: Percent Control
Method: as §1

[27] = molecular target: RET(V804L) (Homo sapiens, UniProt P07949, V804L); assay: KINOMEscan; settings: read-out: Percent Control
Method: as §1

[28] = molecular target: PAK4 (Homo sapiens, UniProt O96013); assay: Z'-LYTE FRET kinase inhibition assay; format: biochemical; parameters: purchased Invitrogen
Text: […]. […] […].

[29] = molecular target: MAP4K2 (Homo sapiens, UniProt Q12851); assay: KINOMEscan; settings: read-out: Percent Control
Method: as §1

[30] = molecular target: LYN (Homo sapiens, UniProt P07948); assay: KINOMEscan; settings: read-out: Percent Control
Method: as §1

[31] = molecular target: STK16 (Homo sapiens, UniProt O75716); assay: KINOMEscan; settings: read-out: Percent Control
Method: as §1

Chain of BLK (P51451 whole entry): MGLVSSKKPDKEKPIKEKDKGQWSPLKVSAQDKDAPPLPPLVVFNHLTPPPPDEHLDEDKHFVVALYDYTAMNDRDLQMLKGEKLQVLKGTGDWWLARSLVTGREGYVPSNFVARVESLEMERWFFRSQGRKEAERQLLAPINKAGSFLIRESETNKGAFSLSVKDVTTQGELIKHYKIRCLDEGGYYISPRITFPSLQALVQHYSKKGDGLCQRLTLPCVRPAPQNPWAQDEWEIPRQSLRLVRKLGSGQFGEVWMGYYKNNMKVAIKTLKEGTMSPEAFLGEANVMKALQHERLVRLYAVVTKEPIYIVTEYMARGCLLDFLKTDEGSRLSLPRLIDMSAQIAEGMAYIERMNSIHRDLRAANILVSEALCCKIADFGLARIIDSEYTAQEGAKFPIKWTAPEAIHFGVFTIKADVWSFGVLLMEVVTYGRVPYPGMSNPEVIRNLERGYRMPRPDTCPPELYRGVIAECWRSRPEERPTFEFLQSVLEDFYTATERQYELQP

Q: What does the source list for `O=C1CCC(N2C(=O)c3cccc(NCCCCCCCCNC(=O)N4CC[C@H](NC5=Nc6cc(F)ccc6N(CC(F)F)c6ccc(Cl)cc65)C4)c3C2=O)C(=O)N1` (stereo partly drawn) [BJG-05-039, (3S)-3-((2-Chloro-5-(2,2-difluoroethyl)-8-fluoro-5H-dibenzo[b,e][1,4]diazepin-11-yl)amino)-N-(8-((2-(2,6-dioxopiperidin-3-yl)-1,3-dioxoisoindolin-4-yl)amino)octyl)pyrrolidine-1-carboxamide]?
A: remaining binding at 10 µM [1]: 89%; remaining binding at 10 µM [2]: 67%; remaining binding at 10 µM [3]: 97%; remaining binding at 10 µM [4]: 73%; remaining binding at 10 µM [5]: 57%; remaining binding at 10 µM [6]: 77%; remaining binding at 10 µM [7]: 63%; remaining binding at 10 µM [8]: 100%; remaining binding at 10 µM [9]: 100%; IC50 [10]: > 10 µM; remaining binding at 10 µM [11]: 67%; remaining binding at 10 µM [12]: 100%; remaining binding at 10 µM [13]: 89%; remaining binding at 10 µM [14]: 82%; remaining binding at 10 µM [15]: 85%; remaining binding at 10 µM [16]: 99%; remaining binding at 10 µM [17]: 62%; remaining binding at 10 µM [18]: 100%; remaining binding at 10 µM [19]: 72%; remaining binding at 10 µM [20]: 100%; remaining binding at 10 µM [21]: 100%; remaining binding at 10 µM [22]: 90%; remaining binding at 10 µM [23]: 79%; remaining binding at 10 µM [24]: 63%; remaining binding at 10 µM [25]: 62%; remaining binding at 10 µM [26]: 100%; remaining binding at 10 µM [27]: 99%; IC50 [28]: > 10 µM; remaining binding at 10 µM [29]: 89%; remaining binding at 10 µM [30]: 79%; remaining binding at 10 µM [31]: 62%
